Measurements: ChEMBL document CHEMBL3751783, “Straightforward and effective synthesis of γ-aminobutyric acid transporter subtype 2-selective acyl-substituted azaspiro[4.5]decanes” (Bioorg Med Chem Lett, 2016)

What was measured:
Type in all cases: cell-based
GABA transporter 2 = target: T1, GABA transporter 2 (Mus musculus, UniProt P31651); experiment: Inhibition of mouse BGT1 mediated [3]GABA uptake expressed in HEK293 cells after 3 mins by scintillation counting
T1 sequence (P31651 whole entry): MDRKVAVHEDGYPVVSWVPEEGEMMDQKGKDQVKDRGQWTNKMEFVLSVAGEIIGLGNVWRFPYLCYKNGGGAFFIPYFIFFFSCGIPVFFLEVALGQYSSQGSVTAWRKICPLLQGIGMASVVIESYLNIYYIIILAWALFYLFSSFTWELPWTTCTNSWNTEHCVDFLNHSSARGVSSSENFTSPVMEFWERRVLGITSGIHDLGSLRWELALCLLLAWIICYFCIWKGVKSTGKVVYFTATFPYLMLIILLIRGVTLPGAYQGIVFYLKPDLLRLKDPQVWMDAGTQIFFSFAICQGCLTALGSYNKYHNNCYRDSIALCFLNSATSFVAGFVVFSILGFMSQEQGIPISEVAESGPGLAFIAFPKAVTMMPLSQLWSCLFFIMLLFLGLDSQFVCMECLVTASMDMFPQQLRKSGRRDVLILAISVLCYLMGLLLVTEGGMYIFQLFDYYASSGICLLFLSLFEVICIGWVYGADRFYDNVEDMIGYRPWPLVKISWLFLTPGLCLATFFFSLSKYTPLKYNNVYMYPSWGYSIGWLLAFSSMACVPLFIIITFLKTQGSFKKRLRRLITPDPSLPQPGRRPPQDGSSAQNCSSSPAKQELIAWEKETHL

GABA transporter 3 = target: T2, GABA transporter 3 (Mus musculus, UniProt P31649); experiment: Inhibition of mouse GAT2 mediated [3]GABA uptake expressed in HEK293 cells after 3 mins by scintillation counting
T2 sequence (P31649 whole entry): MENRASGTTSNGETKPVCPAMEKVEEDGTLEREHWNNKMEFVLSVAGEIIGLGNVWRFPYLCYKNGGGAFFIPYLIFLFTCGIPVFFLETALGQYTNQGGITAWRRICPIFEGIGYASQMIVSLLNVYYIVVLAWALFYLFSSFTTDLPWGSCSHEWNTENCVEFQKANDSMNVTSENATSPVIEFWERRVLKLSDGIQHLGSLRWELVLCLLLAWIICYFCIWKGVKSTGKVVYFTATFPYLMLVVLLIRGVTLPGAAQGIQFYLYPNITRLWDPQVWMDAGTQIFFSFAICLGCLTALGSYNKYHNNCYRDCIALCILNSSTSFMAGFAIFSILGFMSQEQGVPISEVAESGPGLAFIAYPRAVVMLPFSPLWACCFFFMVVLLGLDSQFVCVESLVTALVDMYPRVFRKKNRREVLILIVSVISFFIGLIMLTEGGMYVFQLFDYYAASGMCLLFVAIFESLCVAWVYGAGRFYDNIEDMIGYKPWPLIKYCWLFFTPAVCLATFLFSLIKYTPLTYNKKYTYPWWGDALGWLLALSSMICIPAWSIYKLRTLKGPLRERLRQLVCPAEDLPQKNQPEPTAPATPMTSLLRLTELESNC

[1] = target: Sodium- and chloride-dependent GABA transporter 1 (Mus musculus, UniProt P31648); experiment: Inhibition of mouse GAT1 mediated [3]GABA uptake expressed in HEK293 cells after 3 mins by scintillation counting

Row | Compound | IC50 (GABA transporter 2) [µM] | IC50 (GABA transporter 3) [µM] | IC50 [1] [µM]
1 | O=C(CCN1CCOCC1)N1CCCC12CCCCC2 | > 5000 | > 5000 | > 5000
2 | O=C1CCC2(CCCCC2=O)N1 (stereo not given) | > 1000 | > 1000 | > 1000
3 | COc1ccc(C(OCCN2CCC[C@H](C(=O)O)C2)(c2ccc(OC)cc2)c2ccc(OC)cc2)cc1 | > 1000 | – | –
4 | O=C(CCN1CCNCC1)N1C(=O)CCC12CCCCC2 | > 1000 | > 1000 | > 1000
5 | O=C(CI)N1C(=O)CCC12CCCCC2 | > 1000 | > 1000 | > 1000
6 | CCOC(=O)C1CCCN(CCC(=O)N2CCCC23CCCCC3)C1 (stereo not given) | > 5000 | 2330 | > 5000
7 | O=C1CCC2(CCCCC2)N1 | > 5000 | > 5000 | > 5000
8 | O=C(CCN1CCCCC1)N1C(=O)CCC12CCCCC2 | > 1000 | > 1000 | > 1000
9 | C=CC(=O)N1C(=O)C=CC12CCCC21OCCO1 (stereo not given) | > 1000 | > 1000 | > 1000
10 | C=CC(=O)N1C(=O)CCC12CCCCC2 | 103 | > 1000 | 371
11 | O=C(O)C1=CCCNC1 [GUVACINE] | > 1000 | 72.4 | 20.9
12 | O=C(CCN1CCNCC1)N1CCCC12CCCCC2 | > 1000 | > 1000 | > 1000
13 | O=C(CCl)N1C(=O)CCC12CCCCC2 | > 1000 | > 1000 | > 1000
14 | O=C(CBr)N1CCCC12CCCCC2 | > 5000 | > 5000 | 233
15 | O=C(CCN1CCOCC1)N1C(=O)CCC12CCCCC2 | > 1000 | > 1000 | > 1000
16 | O=C1C=CC2(CCCC23OCCO3)N1C(=O)CCN1CCNCC1 (stereo not given) | > 1000 | > 1000 | > 1000
17 | COC(=O)C1=CCCN(CCC(=O)N2CCCC23CCCCC3)C1 | 2300 | 3230 | 2050

Row | Compound | IC50 (GABA transporter 2) [µM] | IC50 (GABA transporter 3) [µM] | IC50 [1] [µM]
18 | C=CC(=O)N1CCCC12CCCCC2 | > 5000 | 3020 | > 5000
19 | [N-]=[N+]=NCC(=O)N1C(=O)CCC12CCCCC2 | > 1000 | > 1000 | > 1000
20 | O=C1C=CC2(CCCC23OCCO3)N1C(=O)CCN1CCOCC1 (stereo not given) | > 1000 | > 1000 | > 1000
21 | C=CC(=O)N1C(=O)CCC12CCCCC2=O (stereo not given) | > 1000 | > 1000 | > 1000
22 | O=C(CBr)N1C(=O)CCC12CCCCC2=O (stereo not given) | > 1000 | > 1000 | > 1000
23 | O=C(CCN1CCCC1)N1CCCC12CCCCC2 | > 5000 | > 5000 | > 5000
24 | CCN(CC)CCC(=O)N1CCCC12CCCCC2 | > 1000 | > 1000 | > 1000
25 | O=C(CCN1CCCCC1)N1CCCC12CCCCC2 | > 5000 | > 5000 | > 5000
26 | C=CCN1C(=O)CCC12CCCC21OCCO1 (stereo not given) | > 1000 | > 1000 | > 1000
27 | CCN(CC)CCC(=O)N1C(=O)CCC12CCCCC2 | > 1000 | > 1000 | > 1000
28 | O=C(CCN1CCCC1)N1C(=O)CCC12CCCCC2 | > 1000 | > 1000 | > 1000
29 | O=C(O)C1=CCCN(CCON=C(c2ccccc2)c2ccccc2)C1 | > 1000 | > 1000 | 0.18
30 | CCOC(=O)C1CCCN(CCC(=O)N2C(=O)CCC23CCCCC3)C1 (stereo not given) | 164 | > 1000 | > 1000
31 | O=C1CCC2(CCCC23OCCO3)N1 (stereo not given) | > 1000 | > 1000 | > 1000
32 | O=C(CBr)N1C(=O)CCC12CCCCC2 | 103 | > 1000 | 371
33 | C1CCC2(CC1)CCCN2 | > 5000 | > 5000 | > 5000
34 | CCOC(=O)C1CCCN(CCC(=O)N2C(=O)C=CC23CCCC32OCCO2)C1 (stereo not given) | > 1000 | > 1000 | > 1000
